Data: patent US20230270804A1, “ANTI-HYPERCHOLESTEROLEMIA COMPOSITION AND A METHOD OF MANUFACTURING THE SAME” (NBI BIOSCIENCES PRIVATE LIMITED, priority 2020, published 2023)

How the values were obtained:
Format in all cases: in vivo, Wistar strain albino rats
[1] = Therapeutic study: organ body weight after necropsy
Description: The prophylactic study which lasted 90 days used 6 rats per group. […] The 6 groups were as follows: • 1. Normal Control • 2. High Fat Diet (HFD) 1 ml 1/d+Normal Diet • 3. High Fat Diet (HFD)+Normal Diet+the composition of the present invention (OD) • 4, High Fat Diet (HFD)+Normal Diet+the composition of the present invention (BD) • 5. […] The body weights were recorded to the nearest gram (g) with proper tare to 0.0000 with the subject at steady state on the weighing machine. The same weighing machine was used for all the subjects. The machine was tested with a known set of weights for any error.

[2] = system: Creatine phosphokinase (CPK), Lactate dehydrogenase (LDH), SGOT and SGPT; experiment: Therapeutic study: CPK, LDH, SGOT, SGPT
Description: (§1) 1.5-2 ml blood sample was taken from retino-orbital chamber in vials for biochemical estimations at every 15 days. Investigations performed included detailed Total Cholesterol—TC (mg/dl), Triglyceride—TG (mg/dl), High Density Lipoprotein—HDL-C (mg/dl), Low Density Lipoprotein—LDL-C (mg/dl), Very Low-Density Lipoprotein—VLDL (mg/dl), WBC (10^3/u1), RBC (10^6/u1), Hb (g/dl), PCV (%), Reticulocyte (%), Platelet count 10^5/mm^3, Clotting time (Sec), Neutrophils, Lymphocyte, Monocyte and Eosinophil. The estimations were done with Ecoline kits from Erba Mannheim, ERBA diagnostics Mannheml, Germany using Semi Autoanalyzer RX50 of MicroLabs Instruments and COUNCELL21 of Tulip Diagnostics Pvt. Ltd. Lipid peroxidation (Plasma & Liver), HMG Co-Reductase, Creatine phosphokinase (CPK), Lactate dehydrogenase (LDH), SGOT and SGPT were estimated at the end of both the studies using the kits.

[3] = Prophylactic study: hematological parameters; conditions: HFD+normal diet, day 0
[4] = system: Creatine phosphokinase (CPK), Lactate dehydrogenase (LDH), SGOT and SGPT; experiment: Prophylactic study: CPK, LDH, SGOT, SGPT
Description: as §1

[5] = HFD+normal diet, after sacrifice

In the case of `CC(C)c1c(C(=O)Nc2ccccc2)c(-c2ccccc2)c(-c2ccc(F)cc2)n1CC[C@@H](O)C[C@@H](O)CC(=O)O` [Statin, Atorvastatin], the “Intestine (organ body weight after necropsy)” value ([1]; HFD Continued) is reported as 2.00 ± 0.02, the “Kidney (organ body weight after necropsy)” value ([1]; HFD Continued) is reported as 2.82 ± 0.06 g/100 g bd. wt and the “Liver (organ body weight after necropsy)” value ([1]; HFD Continued) is reported as 4.51 ± 0.12 g/100 g. The “Lungs (organ body weight after necropsy)” value ([1]; HFD Continued) was 0.65 ± 0.03 g/100 g bd. wt, the “Pancrease (organ body weight after necropsy)” value ([1]; HFD Continued) was 0.89 ± 0.05 g/100 g bd. wt and the “Spleen (organ body weight after necropsy)” value ([1]; HFD Continued) was 1.19 ± 0.02. For the same compound, the “Intestine (organ body weight after necropsy)” value ([1]; HFD Discontinued) was 2.00 ± 0.02, the “Kidney (organ body weight after necropsy)” value ([1]; HFD Discontinued) was 2.84 ± 0.04 g/100 g bd. wt and the “Liver (organ body weight after necropsy)” value ([1]; HFD Discontinued) was 4.37 ± 0.05 g/100 g. The “Lungs (organ body weight after necropsy)” value ([1]; HFD Discontinued) was 0.66 ± 0.03 g/100 g bd. wt, the “Pancrease (organ body weight after necropsy)” value ([1]; HFD Discontinued) was 0.91 ± 0.03 g/100 g bd. wt and the “Spleen (organ body weight after necropsy)” value ([1]; HFD Discontinued) was 1.17 ± 0.03. For the same compound, the Creatine phosphokinase ([2]; HFD Continued) was 1.31 ± 0.08, the LDH ([2]; HFD Continued) was 288.32 ± 12.64 U/ml and the SGOT ([2]; HFD Continued) was 63.76 ± 2.92 U/ml. It also gave an SGPT ([2]; HFD Continued) of 53.82 ± 1.13 U/ml, an LDH ([2]; HFD Discontinued) of 284.07 ± 5.61 U/ml and an SGOT ([2]; HFD Discontinued) of 62.88 ± 3.43 U/ml. For the same compound, the SGPT ([2]; HFD Discontinued) was 64.69 ± 0.52 U/ml, the CPK value increase ([2]; therapeutic study) was 10% and the SGOT reduction ([2]; therapeutic study) was 16%. For the same compound, the SGPT reduction ([2]; therapeutic study) was 5%, the Platelet count [3] was 1040 ± 15.2 10³/µL and the Creatine phosphokinase [4, 5] was 1.33 ± 0.04 U/ml. The LDH [4, 5] was 278.50 ± 5.50 U/ml, the SGOT [4, 5] was 59.03 ± 1.49 U/ml and the SGPT [4, 5] was 55.63 ± 0.51 U/ml. For the same compound, the “Inhibition in SGPT activity” value ([4]; prophylactic study, composition twice a day) was 20%.
